This is an account of results in ChEMBL document CHEMBL5370644, “Subplenones A-J: Dimeric Xanthones with Antibacterial Activity from the Endophytic Fungus Subplenodomus sp. CPCC 401465” (2023).

One may read the MIC as the lowest concentration that inhibits growth of the organism.

In brackets after ≈: the same amount, converted by molar mass.

What all share (assay type): functional
Settings in all cases: time 16-20 hrs

Experiment [1] deals with Staphylococcus aureus. Description: Antibacterial activity against methicillin-resistant Staphylococcus aureus ATCC 43300 assessed as bacterial growth inhibition incubated for 16 to 20 hrs by CLSI based two-fold serial dilution method.
Another experiment concerns Enterococcus faecium. Description: Antibacterial activity against vancomycin-resistant Enterococcus faecium ATCC 700221 assessed as bacterial growth inhibition incubated for 16 to 20 hrs by CLSI based two-fold serial dilution method.
Experiment [2] has as its system Staphylococcus epidermidis. Nature of the experiment: Antibacterial activity against methicillin-sensitive Staphylococcus epidermidis ATCC 12228 assessed as bacterial growth inhibition incubated for 16 to 20 hrs by CLSI based two-fold serial dilution method.
Experiment [3] relates to Enterococcus faecalis. Nature of the experiment: Antibacterial activity against vancomycin-sensitive Enterococcus faecalis ATCC 29212 assessed as bacterial growth inhibition incubated for 16 to 20 hrs by CLSI based two-fold serial dilution method.
The subject of experiment [4] is Enterococcus faecalis. Nature of the experiment: Antibacterial activity against vancomycin-resistant Enterococcus faecalis ATCC 51299 assessed as bacterial growth inhibition incubated for 16 to 20 hrs by CLSI based two-fold serial dilution method.
Experiment [5] concerns Staphylococcus aureus. Nature of the experiment: Antibacterial activity against methicillin-resistant Staphylococcus aureus ATCC 700698 assessed as bacterial growth inhibition incubated for 16 to 20 hrs by CLSI based two-fold serial dilution method.
The subject of experiment [6] is Staphylococcus aureus. Nature of the experiment: Antibacterial activity against methicillin-sensitive Staphylococcus aureus ATCC 29213 assessed as bacterial growth inhibition incubated for 16 to 20 hrs by CLSI based two-fold serial dilution method.

As for `CC1=C[C@H](O)[C@]2(O)C(=O)c3c(ccc(-c4ccc5c(c4O)C(=O)C4=C(O)C[C@@H](C)[C@H](O)[C@@]4(C)O5)c3O)O[C@@]2(C)[C@H]1O`, the minimal inhibitory concentration (MIC) in the experiment on Staphylococcus aureus [1] is 0.5 µg/mL (≈ 0.883 µM); with Enterococcus faecium, 1 µg/mL (≈ 1.77 µM); in experiment [2], not above 0.125 µg/mL; with Enterococcus faecalis [3] it was 2 µg/mL (≈ 3.53 µM); in the experiment with Enterococcus faecalis [4], 4 µg/mL (≈ 7.06 µM); with Staphylococcus aureus [5] it was 0.5 µg/mL (≈ 0.883 µM). The MIC in the experiment with Staphylococcus aureus [6] was found to be 0.5 µg/mL (≈ 0.883 µM).

On to `CC1=CC(O)=C2C(=O)c3c(ccc(-c4ccc5c(c4O)C(=O)C4=C(O)C[C@@H](C)[C@H](O)[C@@]4(C)O5)c3O)O[C@@]2(C)[C@H]1O`, for which the MIC in the experiment on Staphylococcus aureus [1] was 0.5 µg/mL (≈ 0.912 µM); in the experiment with Enterococcus faecium, 1 µg/mL (≈ 1.82 µM); in experiment [2], not above 0.125 µg/mL; in the experiment on Enterococcus faecalis [3], 2 µg/mL (≈ 3.65 µM); in the experiment with Enterococcus faecalis [4], 4 µg/mL (≈ 7.29 µM); in the experiment on Staphylococcus aureus [5], 0.25 µg/mL (≈ 0.456 µM). Further, the MIC with Staphylococcus aureus [6] was found to be 0.5 µg/mL (≈ 0.912 µM).

With `CC1=CC(O)=C2C(=O)c3c(ccc(-c4ccc(O)c(C(=O)c5c(O)cc(C)c(O)c5C)c4O)c3O)O[C@@]2(C)[C@H]1O`, the MIC is 1 µg/mL (≈ 1.83 µM) in the experiment with Staphylococcus aureus [1]; 1 µg/mL (≈ 1.83 µM) with Enterococcus faecium; not above 0.125 µg/mL in experiment [2]; 2 µg/mL (≈ 3.66 µM) with Enterococcus faecalis [3]; 4 µg/mL (≈ 7.32 µM) in the experiment on Enterococcus faecalis [4]; 0.5 µg/mL (≈ 0.915 µM) with Staphylococcus aureus [5]. In the experiment on Staphylococcus aureus [6], the MIC was 1 µg/mL (≈ 1.83 µM).

As to `CC1=CC(O)=C2C(=O)c3c(O)ccc(-c4ccc5c(c4O)C(=O)C4=C(O)C=C(C)[C@H](O)[C@]4(C)O5)c3O[C@]2(C)C1=O`, the MIC in the experiment on Staphylococcus aureus [1] was determined as 1 µg/mL (≈ 1.84 µM); in the experiment on Enterococcus faecium, 1 µg/mL (≈ 1.84 µM); in experiment [2] it was 0.25 µg/mL (≈ 0.459 µM); in the experiment with Enterococcus faecalis [3], 4 µg/mL (≈ 7.35 µM); in the experiment with Enterococcus faecalis [4], 4 µg/mL (≈ 7.35 µM); with Staphylococcus aureus [5], 0.5 µg/mL (≈ 0.918 µM). Further, the MIC in the experiment on Staphylococcus aureus [6] worked out at 1 µg/mL (≈ 1.84 µM).

Consider `CC1=CC(O)=C2C(=O)c3c(ccc(-c4ccc5c(c4O)C(=O)C4=C(O)C=C(C)[C@H](O)[C@]4(C)O5)c3O)O[C@@]2(C)C1=O`, for which the MIC in the experiment with Staphylococcus aureus [1] was 1 µg/mL (≈ 1.84 µM); with Enterococcus faecium it was 2 µg/mL (≈ 3.67 µM); in experiment [2] it was not above 0.125 µg/mL; in the experiment with Enterococcus faecalis [3], 4 µg/mL (≈ 7.35 µM); in the experiment with Enterococcus faecalis [4], 4 µg/mL (≈ 7.35 µM); in the experiment on Staphylococcus aureus [5] it was 0.5 µg/mL (≈ 0.918 µM). The MIC with Staphylococcus aureus [6] turned out to be 1 µg/mL (≈ 1.84 µM).

In the case of `CC1=CC(O)=C2C(=O)c3c(ccc(-c4ccc5c(c4O)C(=O)C4=C(O)C=C(C)[C@H](O)[C@]4(C)O5)c3O)O[C@@]2(C)[C@H]1O`, the MIC in the experiment on Staphylococcus aureus [1] was determined as 4 µg/mL (≈ 7.32 µM); in the experiment on Enterococcus faecium it was 16 µg/mL (≈ 29.3 µM); in experiment [2] it was 1 µg/mL (≈ 1.83 µM); in the experiment with Enterococcus faecalis [3], 128 µg/mL (≈ 234 µM); with Enterococcus faecalis [4], 128 µg/mL (≈ 234 µM); in the experiment with Staphylococcus aureus [5] it was 2 µg/mL (≈ 3.66 µM). Further, in the experiment with Staphylococcus aureus [6], the minimum inhibitory concentration (MIC) came out at 2 µg/mL (≈ 3.66 µM).

With `CC1=CC(O)=C2C(=O)c3c(O)ccc(-c4ccc5c(c4O)C(=O)C4=C(O)C=C(C)[C@H](O)[C@]4(C)O5)c3O[C@@]2(C)C1=O`, the MIC is 0.5 µg/mL (≈ 0.918 µM) in the experiment on Staphylococcus aureus [1]; 0.5 µg/mL (≈ 0.918 µM) in the experiment on Enterococcus faecium; not above 0.125 µg/mL in experiment [2]; 2 µg/mL (≈ 3.67 µM) in the experiment with Enterococcus faecalis [3]; 2 µg/mL (≈ 3.67 µM) in the experiment with Enterococcus faecalis [4]; 0.25 µg/mL (≈ 0.459 µM) in the experiment on Staphylococcus aureus [5]. The MIC in the experiment with Staphylococcus aureus [6] worked out at 0.5 µg/mL (≈ 0.918 µM).

`CC1=CC(O)=C2C(=O)c3c(ccc(-c4ccc5c(c4O)C(=O)C4=C(O)C=C(C)[C@H](O)[C@]4(C)O5)c3O)O[C@]2(C)C1=O`: the MIC with Staphylococcus aureus [1] is 0.5 µg/mL (≈ 0.918 µM); in the experiment with Enterococcus faecium, 0.5 µg/mL (≈ 0.918 µM); in experiment [2], not above 0.125 µg/mL; in the experiment on Enterococcus faecalis [3] it was 2 µg/mL (≈ 3.67 µM); with Enterococcus faecalis [4], 2 µg/mL (≈ 3.67 µM); in the experiment on Staphylococcus aureus [5], 0.25 µg/mL (≈ 0.459 µM). In the experiment on Staphylococcus aureus [6], the MIC was found to be 0.5 µg/mL (≈ 0.918 µM).

With `CC1=CC(O)=C2C(=O)c3c(ccc(-c4ccc5c(c4O)C(=O)[C@@]4(O)C(=O)C=C(C)[C@H](O)[C@]4(C)O5)c3O)O[C@]2(C)[C@H]1O`, the MIC in the experiment with Staphylococcus aureus [1] was 4 µg/mL (≈ 7.11 µM); in the experiment with Enterococcus faecium, 4 µg/mL (≈ 7.11 µM); in experiment [2], 0.5 µg/mL (≈ 0.889 µM); in the experiment on Enterococcus faecalis [3], 16 µg/mL (≈ 28.4 µM); with Enterococcus faecalis [4], 16 µg/mL (≈ 28.4 µM); with Staphylococcus aureus [5] it was 4 µg/mL (≈ 7.11 µM). For the same molecule, the MIC with Staphylococcus aureus [6] was found to be 4 µg/mL (≈ 7.11 µM).

As for `CC1=CC(O)=C2C(=O)c3c(ccc(-c4ccc5c(c4O)C(=O)C4=C(O)C=C(C)C(=O)[C@]4(C)O5)c3O)O[C@@]2(C)C1=O`, the MIC was determined as 1 µg/mL (≈ 1.84 µM) in the experiment on Staphylococcus aureus [1]; 1 µg/mL (≈ 1.84 µM) in the experiment with Enterococcus faecium; 0.25 µg/mL (≈ 0.461 µM) in experiment [2]; 4 µg/mL (≈ 7.37 µM) with Enterococcus faecalis [3]; 4 µg/mL (≈ 7.37 µM) with Enterococcus faecalis [4]; 0.5 µg/mL (≈ 0.922 µM) with Staphylococcus aureus [5]. Besides, the MIC in the experiment on Staphylococcus aureus [6] amounted to 1 µg/mL (≈ 1.84 µM).

On to `C[C@H]1COc2c(N3CCN(C)CC3)c(F)cc3c(=O)c(C(=O)O)cn1c23` [LEVOFLOXACIN ANHYDROUS], for which the MIC is 0.125 µg/mL (≈ 0.346 µM) in the experiment on Staphylococcus aureus [1]; more than 64 µg/mL in the experiment on Enterococcus faecium; 0.25 µg/mL (≈ 0.692 µM) in experiment [2]; 1 µg/mL (≈ 2.77 µM) in the experiment on Enterococcus faecalis [3]; 1 µg/mL (≈ 2.77 µM) in the experiment on Enterococcus faecalis [4]; 0.125 µg/mL (≈ 0.346 µM) with Staphylococcus aureus [5]. Besides, the MIC in the experiment on Staphylococcus aureus [6] amounted to 0.125 µg/mL (≈ 0.346 µM).
